Laboratory results taken from US20230271950A1, “ANTIBACTERIAL PICOLINAMIDE COMPOUNDS” (University of Notre Dame Du Lac, priority 2020, published 2023).
In brackets after ≈: the same amount, converted by molar mass. Like-named read-outs stand apart in the source and are kept apart here.

Legend:
Veillonella sp. HM-49 = experiment: MIC against gut bacterium Veillonella sp.; type: cell-based
S. aureus ATCC29213 = experiment: MIC against MSSA; type: cell-based, Staphylococcus aureus; conditions: Staphylococcus aureus; S. aureus ATCC29213; Table 1; read-out: MIC
MRSA (NRS70, NRS119) = experiment: MIC against MRSA strains; type: cell-based, Staphylococcus aureus
C. difficile = experiment: MIC by broth microdilution against C. difficile strains; type: cell-based, Clostridioides difficile; conditions: Clostridioides difficile; for MIC: read-out: MIC
Eubacterium sp. = experiment: MIC against gut bacterium Eubacterium sp.; type: cell-based; conditions: Eubacterium sp. strain HM-178
Fusobacterium nucleatum = experiment: MIC against gut bacterium Fusobacterium nucleatum; type: cell-based; conditions: Fusobacterium nucleatum strain HM-992
Lactobacillus gasseri = experiment: MIC against gut bacterium Lactobacillus gasseri; type: cell-based
Lactobacillus reuteri = experiment: MIC against gut bacterium Lactobacillus reuteri; type: cell-based
Bacteroides fragilis = experiment: MIC against gut bacterium Bacteroides fragilis; type: cell-based; conditions: Bacteroides fragilis strain HM-709
Corynebacterium spp. = experiment: MIC against gut bacterium Corynebacterium spp.; type: cell-based; conditions: Corynebacterium spp. strain HM-784; Table 1
Bifidobacterium longum = experiment: MIC against gut bacterium Bifidobacterium longum; type: cell-based; conditions: Bifidobacterium longum strain HM-846

## CN[C@H](CC(C)C)C(=O)N[C@H]1C(=O)N[C@@H](CC(N)=O)C(=O)N[C@H]2C(=O)N[C@H]3C(=O)N[C@H](C(=O)N[C@H](C(=O)O)c4cc(O)cc(O)c4-c4cc3ccc4O)[C@H](O)c3ccc(c(Cl)c3)Oc3cc2cc(c3O[C@@H]2O[C@H](CO)[C@@H](O)[C@H](O)[C@H]2O[C@H]2C[C@](C)(N)[C@H](O)[C@H](C)O2)Oc2ccc(cc2Cl)[C@H]1O [VAN, vancomycin, reference compound]
Veillonella sp. HM-49; SP.HM49, Veillonella sp. HM-49, Table 1, read-out: MIC
  MIC: > 32 µg/mL
Veillonella sp. HM-49; Veillonella sp. strain HM-49, Table 7
  MIC: >32 µg/mL
S. aureus ATCC29213
  MIC: 1 µg/mL (≈ 0.69 µM)
MRSA (NRS70, NRS119); MRSA NRS70, Table 7
  MIC: 2 µg/mL (≈ 1.38 µM)
MRSA (NRS70, NRS119); MRSA NRS119, Table 1
  MIC: 2 µg/mL (≈ 1.38 µM)
MRSA (NRS70, NRS119); Staphylococcus aureus, MRSA NRS70, Table 1, read-out: MIC
  MIC: 2 µg/mL (≈ 1.38 µM)
C. difficile; ATCC43598, C. difficile ATCC43598, Table 7
  MIC: 1 µg/mL (≈ 0.69 µM)
C. difficile; ATCC43598, C. difficile ATCC43598, Table 9
  MIC: 1 µg/mL (≈ 0.69 µM)
C. difficile; BAA1801, C. difficile BAA-1801, Table 7
  MIC: 0.25 µg/mL (≈ 0.173 µM)
C. difficile; BAA1801, C. difficile BAA-1801, Table 9
  MIC: 0.25 µg/mL (≈ 0.173 µM)
C. difficile; BAA1803, C. difficile BAA-1803, Table 7
  MIC: 2 µg/mL (≈ 1.38 µM)
C. difficile; BAA1803, C. difficile BAA-1803, Table 9
  MIC: 2 µg/mL (≈ 1.38 µM)
C. difficile; BAA1804, C. difficile BAA-1804, Table 7
  MIC: 1 µg/mL (≈ 0.69 µM)
C. difficile; BAA1804, C. difficile BAA-1804, Table 9
  MIC: 1 µg/mL (≈ 0.69 µM)
C. difficile; BAA1870, C. difficile BAA-1870 (NAP1, ribotype 27), Table 1
  MIC: 2 µg/mL (≈ 1.38 µM)
C. difficile; BAA1870, C. difficile BAA-1870, Table 7
  MIC: 2 µg/mL (≈ 1.38 µM)
C. difficile; BAA1870, C. difficile BAA-1870, Table 9
  MIC: 2 µg/mL (≈ 1.38 µM)
C. difficile; C. difficile 23691 (VR, vancomycin-resistant), Table 7
  MIC: 4 µg/mL (≈ 2.76 µM)
C. difficile; C. difficile 23691, clinical isolate resistant to VAN, Table 1
  MIC: 4 µg/mL (≈ 2.76 µM)
C. difficile; C. difficile 23691, Table 9
  MIC: 4 µg/mL (≈ 2.76 µM)
C. difficile; C. difficile 23828 (FR, fidaxomicin-resistant), Table 7
  MIC: 2 µg/mL (≈ 1.38 µM)
C. difficile; C. difficile 23828, clinical isolate resistant to FDX, Table 1
  MIC: 2 µg/mL (≈ 1.38 µM)
C. difficile; C. difficile 23828, Table 9
  MIC: 2 µg/mL (≈ 1.38 µM)
C. difficile; C. difficile 24531 (VR, vancomycin-resistant), Table 7
  MIC: 4 µg/mL (≈ 2.76 µM)
C. difficile; C. difficile 24531, Table 9
  MIC: 4 µg/mL (≈ 2.76 µM)
C. difficile; C. difficile 24923 (VR, vancomycin-resistant), Table 7
  MIC: 8 µg/mL (≈ 5.52 µM)
C. difficile; C. difficile 24923, Table 9
  MIC: 8 µg/mL (≈ 5.52 µM)
C. difficile; C. difficile 26675 (MR, metronidazole-resistant), Table 7
  MIC: 1 µg/mL (≈ 0.69 µM)
C. difficile; C. difficile 26675, clinical isolate resistant to MTZ, Table 1
  MIC: 1 µg/mL (≈ 0.69 µM)
C. difficile; C. difficile 26675, Table 9
  MIC: 1 µg/mL (≈ 0.69 µM)
C. difficile; C. difficile 27081 (FR, fidaxomicin-resistant), Table 7
  MIC: 1 µg/mL (≈ 0.69 µM)
C. difficile; C. difficile 27081, Table 9
  MIC: 1 µg/mL (≈ 0.69 µM)
C. difficile; C. difficile HM-89, Table 9
  MIC: 0.25 µg/mL (≈ 0.173 µM)
C. difficile; C. difficile NR49292, Table 7
  MIC: 0.25 µg/mL (≈ 0.173 µM)
C. difficile; C. difficile NR49292, Table 9
  MIC: 0.25 µg/mL (≈ 0.173 µM)
C. difficile; C. difficile NR49294, Table 7
  MIC: 0.25 µg/mL (≈ 0.173 µM)
C. difficile; C. difficile NR49294, Table 9
  MIC: 0.25 µg/mL (≈ 0.173 µM)
C. difficile; C. difficile NR49318, Table 7
  MIC: 0.25 µg/mL (≈ 0.173 µM)
C. difficile; C. difficile NR49318, Table 9
  MIC: 0.25 µg/mL (≈ 0.173 µM)
C. difficile; C. difficile NR-13427, Table 9
  MIC: 1 µg/mL (≈ 0.69 µM)
C. difficile; C. difficile NR-13428, Table 9
  MIC: 2 µg/mL (≈ 1.38 µM)
C. difficile; C. difficile NR-13431, Table 9
  MIC: 0.25 µg/mL (≈ 0.173 µM)
C. difficile; C. difficile NR-13433, Table 9
  MIC: 1 µg/mL (≈ 0.69 µM)
C. difficile; C. difficile NR-32885, Table 9
  MIC: 1 µg/mL (≈ 0.69 µM)
C. difficile; C. difficile NR-32889, Table 9
  MIC: 2 µg/mL (≈ 1.38 µM)
C. difficile; C. difficile NR-32890, Table 9
  MIC: 2 µg/mL (≈ 1.38 µM)
C. difficile; C. difficile NR-32891, Table 9
  MIC: 1 µg/mL (≈ 0.69 µM)
C. difficile; C. difficile NR-32895, Table 9
  MIC: 2 µg/mL (≈ 1.38 µM)
C. difficile; C. difficile NR-32896, Table 9
  MIC: 2 µg/mL (≈ 1.38 µM)
C. difficile; C. difficile NR-32897, Table 9
  MIC: 0.25 µg/mL (≈ 0.173 µM)
C. difficile; C. difficile NR-32900, Table 9
  MIC: 1 µg/mL (≈ 0.69 µM)
C. difficile; C. difficile NR-32904, Table 9
  MIC: 0.25 µg/mL (≈ 0.173 µM)
C. difficile; C. difficile NR-49280, Table 9
  MIC: 1 µg/mL (≈ 0.69 µM)
C. difficile; C. difficile NR-49285, Table 9
  MIC: 0.25 µg/mL (≈ 0.173 µM)
C. difficile; C. difficile NR-49291, Table 9
  MIC: 1 µg/mL (≈ 0.69 µM)
C. difficile; C. difficile NR-49298, Table 9
  MIC: 1 µg/mL (≈ 0.69 µM)
C. difficile; C. difficile NR-49306, Table 9
  MIC: 1 µg/mL (≈ 0.69 µM)
C. difficile; C. difficile NR-49307, Table 9
  MIC: 1 µg/mL (≈ 0.69 µM)
C. difficile; C. difficile NR-49309, Table 9
  MIC: 1 µg/mL (≈ 0.69 µM)
C. difficile; C. difficile NR-49320, Table 9
  MIC: 1 µg/mL (≈ 0.69 µM)
C. difficile; C. difficile NR-49321, Table 9
  MIC: 0.25 µg/mL (≈ 0.173 µM)
C. difficile; C. difficile NR-49328, Table 9
  MIC: 0.25 µg/mL (≈ 0.173 µM)
C. difficile; C. difficile NR-49329, Table 9
  MIC: 0.25 µg/mL (≈ 0.173 µM)
C. difficile; read-out: MIC90 (101 strains)
  MIC90: 2 µg/mL (≈ 1.38 µM)
Eubacterium sp.; Table 1, read-out: MIC
  MIC: 2 µg/mL (≈ 1.38 µM)
Eubacterium sp.; Table 7
  MIC: 2 µg/mL (≈ 1.38 µM)
Fusobacterium nucleatum; Table 1, read-out: MIC
  MIC: 0.25 µg/mL (≈ 0.173 µM)
Fusobacterium nucleatum; Table 7
  MIC: 0.25 µg/mL (≈ 0.173 µM)
Lactobacillus gasseri; Lactobacillus gasseri strain HM-644, Table 7
  MIC: 1 µg/mL (≈ 0.69 µM)
Lactobacillus gasseri; Lactobacillus gasseri, Lactobacillus gasser strain HM-644, Table 1, read-out: MIC
  MIC: 1 µg/mL (≈ 0.69 µM)
Lactobacillus reuteri; Lactobacillus reuteri strain HM-102, Table 7
  MIC: >32 µg/mL
Lactobacillus reuteri; Limosilactobacillus reuteri, Lactobacillus reuter strain HM-102, Table 1, read-out: MIC
  MIC: > 32 µg/mL
Bacteroides fragilis; Table 1, read-out: MIC
  MIC: 16 µg/mL (≈ 11 µM)
Bacteroides fragilis; Table 7
  MIC: 16 µg/mL (≈ 11 µM)
Corynebacterium spp.
  MIC: 0.25 µg/mL (≈ 0.173 µM)
Bifidobacterium longum; Table 1, read-out: MIC
  MIC: 0.25 µg/mL (≈ 0.173 µM)
Bifidobacterium longum; Table 7
  MIC: 0.25 µg/mL (≈ 0.173 µM)
